The values below are quoted from earlier work in patent US20030039681A1, “Rapid growth dairy heifers having reduced mammary fat content” (priority 2001, published 2003).

The subject of one data set is lactating dairy cattle. Particulars: abomasal infusion.
The test system of another data set is adipose tissue. The following applies: growing pigs, CLA-supplement fed.

Consider conjugated linoleic acid [CLA], for which the milk fat content entry with lactating dairy cattle is recorded as “decreases”. Besides, the proliferation of preadipocytes entry with preadipocytes is listed as “inhibits”. Besides, in the data set with adipose tissue, the carcass lipid content entry is reported as “lower” and the “lipogenesis in adipose tissue” value is recorded as “decreases”.
